ChEMBL document CHEMBL1201862, “PubChem BioAssay data set” (2004)
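Exposure lasted 48 hours, with cells grown in 96-well plates and compounds tested at five concentrations. GI50 = concentration required for 50% inhibition of growth.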 Active and inactive are the calls of the source. Cut-off read from the data, not from the text of the source: active = GI50 up to about 1.1 µM and inactive = higher.

Key:
Assay in all cases: inhibition of tumour cell growth, NCI panel, 48 h
OVCAR-4 = system: OVCAR-4
PC-3 = system: PC-3
U-251 = system: U-251
HCT-116 = system: HCT-116
MCF7 = system: MCF7
A498 = system: A498
T47D = system: T47D
HT-29 = system: HT-29
786-0 = system: 786-0
UO-31 = system: UO-31
OVCAR-3 = system: OVCAR-3
BT-549 = system: BT-549
MOLT-4 = system: MOLT-4
SR = system: SR
HOP-62 = system: HOP-62
OVCAR-5 = system: OVCAR-5
K562 = system: K562
SW-620 = system: SW-620
NCI/ADR-RES = system: NCI/ADR-RES
MDA-N = system: MDA-N

| SMILES | GI50 (OVCAR-4) | GI50 (PC-3) | GI50 (U-251) | GI50 (HCT-116) | GI50 (MCF7) | GI50 (A498) | GI50 (T47D) | GI50 (HT-29) | GI50 (786-0) | GI50 (UO-31) | GI50 (OVCAR-3) | GI50 (BT-549) | GI50 (MOLT-4) | GI50 (SR) | GI50 (HOP-62) | GI50 (OVCAR-5) | GI50 (K562) | GI50 (SW-620) | GI50 (NCI/ADR-RES) | GI50 (MDA-N) |
| --- | --- | --- | --- | --- | --- | --- | --- | --- | --- | --- | --- | --- | --- | --- | --- | --- | --- | --- | --- | --- |
| O=C1/C(=C/c2cccc(O)c2)COc2ccccc21 | 5.32 µM (inactive) | 7.83 µM (inactive) | 1.87 µM (inactive) | 1.75 µM (inactive) | 3.63 µM (inactive) | 20.3 µM (inactive) | 6.47 µM (inactive) | 3.27 µM (inactive) | 4.69 µM (inactive) | 10.5 µM (inactive) | 2.01 µM (inactive) | 15.5 µM (inactive) | 2.24 µM (inactive) | 2.16 µM (inactive) | 15 µM (inactive) | 8.67 µM (inactive) | 2.78 µM (inactive) | 2.19 µM (inactive) | 2.17 µM (inactive) |  |
| Cc1ccc(S(=O)(=O)NC(=O)C2C(=O)CC3(CCCCC3)CC2=O)cc1 | 32.4 µM (inactive) | 25.6 µM (inactive) | 38.4 µM (inactive) | 25.9 µM (inactive) | 22.8 µM (inactive) | 28.4 µM (inactive) | 20 µM (inactive) | 32.7 µM (inactive) | 25.9 µM (inactive) | 22.4 µM (inactive) | 29 µM (inactive) | 27.5 µM (inactive) | 42.4 µM (inactive) |  | 25.4 µM (inactive) | 24.4 µM (inactive) | 38.1 µM (inactive) | 27.6 µM (inactive) | 19.7 µM (inactive) | 29.3 µM (inactive) |
| CC1(C)C2CC(O)C1CCC2=O (stereo unspecified) | > 100 µM (inactive) | > 100 µM (inactive) | > 100 µM (inactive) | > 100 µM (inactive) | > 100 µM (inactive) | > 100 µM (inactive) | > 100 µM (inactive) | > 100 µM (inactive) | > 100 µM (inactive) | > 100 µM (inactive) | > 100 µM (inactive) | > 100 µM (inactive) | > 100 µM (inactive) |  | > 100 µM (inactive) | > 100 µM (inactive) | > 100 µM (inactive) |  | > 100 µM (inactive) | > 100 µM (inactive) |
| CC1(C)O[C@H]([C@H](O)c2nnc3ccc(Cl)nn23)[C@@H]([C@H]2COC(C)(C)O2)O1 | > 100 µM (inactive) | > 100 µM (inactive) | > 100 µM (inactive) | > 100 µM (inactive) | > 100 µM (inactive) | > 100 µM (inactive) | > 100 µM (inactive) | > 100 µM (inactive) | > 100 µM (inactive) |  | > 100 µM (inactive) | > 100 µM (inactive) | > 100 µM (inactive) |  | > 100 µM (inactive) | > 100 µM (inactive) |  | > 100 µM (inactive) | > 100 µM (inactive) | > 100 µM (inactive) |
| C=C1C(=O)OC2(C)CCC1CC1OC1(C)CCC=C(C)CCC2O (stereo unspecified) | > 100 µM (inactive) | > 100 µM (inactive) | > 100 µM (inactive) | > 100 µM (inactive) | > 100 µM (inactive) | 35.9 µM (inactive) | > 100 µM (inactive) | > 100 µM (inactive) | > 100 µM (inactive) | 57.7 µM (inactive) | > 100 µM (inactive) | 6.24 µM (inactive) | 30.3 µM (inactive) |  |  | > 100 µM (inactive) | 31 µM (inactive) | 45.4 µM (inactive) | > 100 µM (inactive) | 25.5 µM (inactive) |
| CN(C)CCCNc1ccnc2cccc([N+](=O)[O-])c12 | 6.18 µM (inactive) | 14.3 µM (inactive) | 15.7 µM (inactive) | 13.7 µM (inactive) | 10.7 µM (inactive) | 15.5 µM (inactive) | 34.3 µM (inactive) | 12.1 µM (inactive) | 14.1 µM (inactive) | 13.3 µM (inactive) | 5.22 µM (inactive) | 21.8 µM (inactive) | > 100 µM (inactive) | > 100 µM (inactive) | 18.1 µM (inactive) | 23 µM (inactive) | 29.4 µM (inactive) | 17.2 µM (inactive) |  | 17.2 µM (inactive) |
| CCOC(=O)c1c(N2CCN(C)CC2)[nH]c(=O)c(C(c2c(Cl)cccc2Cl)c2c(O)c(C(=O)OCC)c(N3CCN(C)CC3)[nH]c2=O)c1O | 21.5 µM (inactive) | 22.5 µM (inactive) | 23.1 µM (inactive) | 38.1 µM (inactive) | 29.5 µM (inactive) | 22.1 µM (inactive) | 16.5 µM (inactive) | 19.8 µM (inactive) | 27.7 µM (inactive) | 21.5 µM (inactive) | 34.8 µM (inactive) | 20.6 µM (inactive) | 23.5 µM (inactive) | 21.9 µM (inactive) | 30.3 µM (inactive) | 43 µM (inactive) | 25.8 µM (inactive) | 31.8 µM (inactive) | 71.1 µM (inactive) |  |
| CNc1nc(SC)nc2c1c(N)nn2C | > 100 µM (inactive) | > 100 µM (inactive) | > 100 µM (inactive) | > 100 µM (inactive) |  | 99.5 µM (inactive) | > 100 µM (inactive) | > 100 µM (inactive) | > 100 µM (inactive) | > 100 µM (inactive) | > 100 µM (inactive) | > 100 µM (inactive) | > 100 µM (inactive) |  | > 100 µM (inactive) | > 100 µM (inactive) | > 100 µM (inactive) | > 100 µM (inactive) | > 100 µM (inactive) | > 100 µM (inactive) |
| O=C(O)/C(=C/C(=O)c1ccc(Cl)cc1)NNc1ccc([N+](=O)[O-])cc1[N+](=O)[O-] | 19.7 µM (inactive) | 36.2 µM (inactive) | 47.9 µM (inactive) | 19.6 µM (inactive) | 52.4 µM (inactive) | > 100 µM (inactive) | 55.5 µM (inactive) | 64.1 µM (inactive) | 27 µM (inactive) | 20.8 µM (inactive) | 33.3 µM (inactive) | 23.2 µM (inactive) | 42 µM (inactive) | 50.9 µM (inactive) | 28.4 µM (inactive) | 82.8 µM (inactive) | 36.9 µM (inactive) |  | 45.8 µM (inactive) |  |
| CC12CCC(/C(=N/c3ccc([N+](=O)[O-])cc3)C1=O)C2(C)C (stereo unspecified) | 13.1 µM (inactive) | 24.5 µM (inactive) | 24.9 µM (inactive) | 19.1 µM (inactive) | > 100 µM (inactive) | > 100 µM (inactive) | 16.3 µM (inactive) | 21 µM (inactive) | 16.8 µM (inactive) | 17.8 µM (inactive) | 21.4 µM (inactive) | 36.6 µM (inactive) |  | 22.5 µM (inactive) | 25.2 µM (inactive) | 51.5 µM (inactive) | 19 µM (inactive) | 23.3 µM (inactive) | 23.3 µM (inactive) |  |
| COc1ccc2c(c1)nc1n2C(c2c(Cl)cccc2Cl)SC1 (stereo unspecified) | > 46.6 µM (inactive) | > 33.3 µM (inactive) | 21.4 µM (inactive) | 7.85 µM (inactive) | 5.68 µM (inactive) | 46.5 µM (inactive) | 16.9 µM (inactive) | 15.2 µM (inactive) | 21.3 µM (inactive) | 46.5 µM (inactive) | > 20.5 µM (inactive) | > 67.3 µM (inactive) | > 21.6 µM (inactive) |  | 32.9 µM (inactive) | > 67.8 µM (inactive) | > 100 µM (inactive) |  | 4.12 µM (inactive) | 2.26 µM (inactive) |
| [N-]=[N+]=NC1=CC(=O)c2cccc3cccc1c23 | 56.9 µM (inactive) | 16.6 µM (inactive) | 20.1 µM (inactive) | 23.5 µM (inactive) | 34.2 µM (inactive) | 12.2 µM (inactive) | 22.3 µM (inactive) | 34.6 µM (inactive) | 31.9 µM (inactive) | 24.9 µM (inactive) | 31.7 µM (inactive) | 27.1 µM (inactive) | 10.7 µM (inactive) | 67.3 µM (inactive) | 15.7 µM (inactive) | 49.3 µM (inactive) | 26.2 µM (inactive) | 17 µM (inactive) |  | 46.2 µM (inactive) |
| CC(C)(C)OC(=O)N(CCCN)CCCCN | > 100 µM (inactive) | > 100 µM (inactive) | > 100 µM (inactive) | > 100 µM (inactive) | > 100 µM (inactive) | > 100 µM (inactive) | > 100 µM (inactive) | > 100 µM (inactive) | > 100 µM (inactive) | > 100 µM (inactive) | > 100 µM (inactive) | > 100 µM (inactive) | > 100 µM (inactive) | > 100 µM (inactive) | > 100 µM (inactive) | > 100 µM (inactive) | > 100 µM (inactive) | > 100 µM (inactive) | > 100 µM (inactive) |  |
| CC(=O)c1nc2ccccc2n1CC(=O)c1ccc([N+](=O)[O-])cc1 | 34.8 µM (inactive) | 10.4 µM (inactive) | 4.38 µM (inactive) | 8.2 µM (inactive) | 16.7 µM (inactive) | 55.2 µM (inactive) | 8.18 µM (inactive) | 15.2 µM (inactive) | 3.47 µM (inactive) | 14.9 µM (inactive) | 13.5 µM (inactive) | 12.6 µM (inactive) | 5.52 µM (inactive) | 7.45 µM (inactive) | 5.06 µM (inactive) |  | 5.5 µM (inactive) | 10.6 µM (inactive) | 13.4 µM (inactive) |  |
| CC(=O)O[C@H]1C(=O)[C@@]2(C)[C@H]([C@H](OC(=O)c3cccc([N+](=O)[O-])c3)[C@]3(O)C[C@H](OC(=O)[C@H](O)[C@@H](NC(=O)c4ccccc4)c4ccccc4)C(C)=C1C3(C)C)[C@]1(OC(C)=O)CO[C@@H]1C[C@@H]2O | 3.58 µM (inactive) | 0.0065 µM (active) | 0.00681 µM (active) | 0.00533 µM (active) | 0.00423 µM (active) | 0.005 µM (active) |  | 0.0043 µM (active) | 0.0159 µM (active) | 0.568 µM (active) | < 0.0025 µM (active) | 0.0376 µM (active) | 0.00509 µM (active) | 0.00447 µM (active) | 0.0107 µM (active) | 0.0105 µM (active) | 0.00482 µM (active) | 0.00706 µM (active) | 5.52 µM (inactive) | 0.00285 µM (active) |
